The results in this text go back to patent US20200172473A1, “DUAL MODULATORS OF FARNESOID X RECEPTOR AND SOLUBLE EPOXIDE HYDROLASE” (JOHANN WOLFGANG GOETHE-UNIVERSITÄT FRANKFURT AM MAIN, priority 2017, published 2020).

“And” between values parts separate entries of the source, which are not always exact repeats. Identical values can stand only once.

For one data set, the target named is T1, recombinant human sEH (Homo sapiens, UniProt P34913).
T1 sequence (P34913 1-555): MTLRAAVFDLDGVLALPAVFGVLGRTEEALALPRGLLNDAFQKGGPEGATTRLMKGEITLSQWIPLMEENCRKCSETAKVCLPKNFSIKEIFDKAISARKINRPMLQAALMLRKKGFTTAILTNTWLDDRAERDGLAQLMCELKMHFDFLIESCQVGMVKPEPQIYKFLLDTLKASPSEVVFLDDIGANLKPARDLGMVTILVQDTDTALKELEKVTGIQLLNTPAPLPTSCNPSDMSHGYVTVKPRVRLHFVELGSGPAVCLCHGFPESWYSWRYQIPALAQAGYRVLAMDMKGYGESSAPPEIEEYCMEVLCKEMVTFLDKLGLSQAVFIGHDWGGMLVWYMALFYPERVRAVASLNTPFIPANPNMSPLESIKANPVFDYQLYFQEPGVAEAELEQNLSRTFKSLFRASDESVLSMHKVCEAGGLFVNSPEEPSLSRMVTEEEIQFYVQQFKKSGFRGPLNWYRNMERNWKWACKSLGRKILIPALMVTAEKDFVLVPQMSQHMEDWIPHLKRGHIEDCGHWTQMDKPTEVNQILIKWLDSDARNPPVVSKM
Put plainly: fluorescence-based sEH activity assay with PHOME substrate. It is filed as biochemical. The conditions noted are these: for IC50: recombinant human sEH, PHOME, read-out: sEH inhibition IC50; for inhibition at 50 µM: read-out: sEH % inhibition at indicated conc. An excerpt:
(§1) This assay is based on a reporter construct containing a firefly luciferase under the control of the FXR response element from bile salt export protein (BSEP). FXR and its hetero dimer partner retinoid X receptor (RXR) as expression constructs under the control of a CMV promoter as well as a constitutively expressed renilla luciferase (SV40 promoter) for normalization and toxicity control were co-transfected. […] The sEH inhibitory potency of the test compounds was quantified in a fluorescence-based assay using recombinant enzyme and the fluorogenic sEH substrate PHOME^37 that is hydrolyzed to a fluorescent 6-methoxynaphtaldehyde by sEH.
The sEH inhibitory potency of the compounds were determined in a fluorescence-based 96-well sEH activity assay using recombinant human enzyme^50,51. Non-fluorescent PHOME (3-phenylcyano-(6-methoxy-2-naphthalenyl)methyl ester 2-oxiraneacetic acid; Cayman Chemicals) which can be hydrolyzed by the sEH to fluorescent 6-methoxynaphthaldehyde served as substrate. Recombinant human sEH (in Bis-Tris buffer, pH 7, with 0.1 mg/mL BSA containing a final concentration of 0.01% Triton-X 100) was pre-incubated with test compounds (in DMSO, final DMSO concentration: 1%) for 30 min at room temperature. […] A blank control (no protein and no compound) as well as a positive control (no compound) were executed. All experiments were conducted in triplicate and repeated in at least three independent experiments. For IC50 calculation, dose-response curves of increasing compound concentrations were recorded.

The next data set concerns the target T2, human FXR (Homo sapiens, UniProt Q96RI1).
T2 construct: characterized in a full-length (fl) FXR reporter gene assay in HeLa cells; expressed in transfected cells; host or cells: HeLa
T2 sequence (Q96RI1 1-486): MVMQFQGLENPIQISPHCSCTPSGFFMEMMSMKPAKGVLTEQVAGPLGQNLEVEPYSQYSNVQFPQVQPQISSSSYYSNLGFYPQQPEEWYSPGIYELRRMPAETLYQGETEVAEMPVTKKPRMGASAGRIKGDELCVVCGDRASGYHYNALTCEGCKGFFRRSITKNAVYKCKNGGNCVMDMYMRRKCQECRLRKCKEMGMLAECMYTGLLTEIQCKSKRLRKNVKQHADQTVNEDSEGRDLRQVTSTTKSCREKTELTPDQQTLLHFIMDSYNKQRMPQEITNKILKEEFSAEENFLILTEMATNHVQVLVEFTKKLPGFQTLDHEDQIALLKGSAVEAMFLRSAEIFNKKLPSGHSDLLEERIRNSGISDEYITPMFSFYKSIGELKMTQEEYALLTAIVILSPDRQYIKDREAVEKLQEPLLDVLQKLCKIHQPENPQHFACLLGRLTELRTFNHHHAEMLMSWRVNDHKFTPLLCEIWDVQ
T2 sequence (P19793 1-462 partner): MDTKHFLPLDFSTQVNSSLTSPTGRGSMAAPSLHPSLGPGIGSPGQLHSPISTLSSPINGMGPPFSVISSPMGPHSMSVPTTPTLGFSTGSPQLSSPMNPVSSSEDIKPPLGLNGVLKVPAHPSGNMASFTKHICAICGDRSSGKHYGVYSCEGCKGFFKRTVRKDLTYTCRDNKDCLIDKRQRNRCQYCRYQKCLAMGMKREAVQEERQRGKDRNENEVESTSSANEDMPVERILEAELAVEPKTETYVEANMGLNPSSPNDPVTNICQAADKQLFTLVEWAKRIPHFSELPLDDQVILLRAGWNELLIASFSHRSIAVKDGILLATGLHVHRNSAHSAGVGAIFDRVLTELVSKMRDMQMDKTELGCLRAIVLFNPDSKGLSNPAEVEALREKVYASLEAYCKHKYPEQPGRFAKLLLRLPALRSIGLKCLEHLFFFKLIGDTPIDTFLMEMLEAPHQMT
Put plainly: full-length FXR reporter gene (transactivation) assay in HeLa cells. It is filed as cell-based. Conditions: for Emax: HeLa, read-out: FXR activation max. rel. activation (converted); for EC50: full-length FXR reporter gene assay, HeLa cells, read-out: FXR activation EC50.
Text: as §1
Plasmids: pcDNA3-hFXR contains the sequence of human FXR and was already published elsewhere.^47 pGL3 basic (Promega Corporation, Fitchburg, Wis., USA) was used as a reporter plasmid, with a shortened construct of the promotor of the bile salt export protein (BSEP) cloned into the SacI/NheI cleavage site in front of the luciferase gene.^48 pRL-V40 (Promega) was transfected as a control for normalization of transfection efficiency and cell growth. pSG5-hRXR was already published elsewhere as well.^49
Assay procedure: HeLa cells were grown in DMEM high glucose supplemented with 10% FCS, sodium pyruvate (1 mM), penicillin (100 U/mL) and streptomycin (100 μg/mL) at 37° C. and 5% CO2. […] Transient transfection of HeLa cells with BSEP-pGL3, pRL-SV40 and the expression plasmids pcDNA3-hFXR and pSG5-hRXR was carried out using calcium phosphate transfection method. […] Each concentration was tested in triplicate wells and each experiment was repeated independently at least three times. […] Luminescence was measured with a Tecan Infinite M200 luminometer (Tecan Deutschland GmbH, Crailsheim, Germany). Normalization of transfection efficiency and cell growth was done by division of firefly luciferase data by renilla luciferase data multiplied by 1000 resulting in relative light units (RLU). Fold activation was obtained by dividing the mean RLU of the tested compound at a respective concentration by the mean RLU of untreated control. […] EC50 and standard error of the mean values were calculated with the mean relative activation values of at least three independent experiments by SigmaPlot 10.0 (Systat Software GmbH, Erkrath, Germany) using a four parameter logistic regression.
On the technique in general: A reporter such as luciferase makes a cellular process visible.

For data set [1], the target named is T3, cellular sEH (HepG2 cell homogenates) (Homo sapiens, UniProt P34913).
T3 sequence (P34913 1-555): T1 sequence (P34913 1-555)
Conditions: 10 μM (positive control); DMSO 63±16, blank 499±123.
Procedure: 25 ng (+)14(15)-EET-d11 (Cayman Chemical, Ann Arbor, USA) was added and incubation was continued for additional to min at 37° C. A blank test was performed with PBS (containing 0.1 mg/ml BSA) treated likewise. The reactions were stopped by adding 100 μl of ice cold methanol. After centrifugation (2000 rpm, 4° C., 5 min), supernatants were analyzed by LC-MS/MS and the amounts of (±)14(15)-EET-d11 and the corresponding (±)14(15)-DHET-d11 were determined.

The nature of a further data set: aqueous solubility. It is filed as physicochemical. Conditions: LLOQ 0.1 μg/mL.
In data set [2] the test system is PPARγ target genes CD36 and FAM3A. Put plainly: PPARγ target gene mRNA quantification (qRT-PCR) in HepG2 cells. It counts as cell-based. The conditions noted are these: HepG2, 1 μM.

One may read the IC50 as the concentration needed to halve the response being measured. As a reminder, the EC50 is the concentration needed to bring the measured effect to its halfway point. Consider `CC(C)(C)c1ccc(C(=O)NCc2ccc(N)cc2Cl)cc1` [69a, N-(4-Amino-2-chlorobenzyl)-4-(tert-butyl)benzamide], for which, on recombinant human sEH, the IC50 is 40 ± 6 nM. Further, on human FXR, the Emax is 29%; the EC50 is 46 nM and 45 nM.

Turning to `O=C(Nc1ccc(I)cc1)NC1CCCCC1` [CIU, reference compound], the “(±)14(15)-EET-d11/(±)14(15)-DHET-d11 ratio” value in data set [1] amounted to 519±55. For the same compound, the “activity in FXR reporter gene assay” value at human FXR (10 μM) was “no activity”.

By inhibition is commonly meant the share of the control response that was lost under treatment. For `Cc1ccc(C(=O)NCc2ccc(C(=O)O)cc2)cc1C` [compound 10], the inhibition at 50 µM on recombinant human sEH came out at 52 ± 1%. For the same compound, the Emax at human FXR was 12%.

Take `COc1ccc(C(=O)NCc2ccc(C(=O)O)cc2)cc1OC` [compound 15]: at recombinant human sEH, the inhibition at 50 µM worked out at 26 ± 2%. Further, the Emax at human FXR was 18%.

As for `O=C(O)c1ccc(CNC(=O)c2ccc3ccccc3c2)cc1` [compound 17], the inhibition at 50 µM on recombinant human sEH stood at 45 ± 1%. Besides, the Emax at human FXR is 18%.

Take `CC(C)(C)c1ccc(C(=O)NCc2cccc(C(=O)O)c2)cc1` [compound 22]: the inhibition at 50 µM at recombinant human sEH was found to be 26 ± 2%. Besides, the Emax at human FXR is 14%.

Regarding `Cc1cc(CNC(=O)c2ccc(C(C)(C)C)cc2)ccc1C(=O)O` [compound 26], the inhibition at 50 µM on recombinant human sEH stood at 53 ± 1%. Further, the Emax on human FXR was 14%.

As for `CC(C)(C)c1ccc(C(=O)NCc2ccc(C(=O)O)c(Cl)c2)cc1` [compound 28], the inhibition at 50 µM on recombinant human sEH is 50 ± 1%. Besides, at human FXR, the Emax is 21%.

For the compound `CC(NC(=O)c1ccc(C(C)(C)C)cc1)c1ccc(C(=O)O)cc1` (stereo not shown) [compound 32], the inhibition at 50 µM at recombinant human sEH amounted to 37 ± 1%. Also, the Emax at human FXR is 24%.

`CSc1ccc(CNC(=O)c2ccc(C(C)(C)C)cc2)cc1` [compound 51]: the IC50 at recombinant human sEH was around 100 nM. Moreover, at human FXR, the Emax is 33% and the half-maximal effective concentration (EC50) is around 100 nM.

For the compound `CC(C)(C)c1ccc(C(=O)NCc2ccc(S(C)(=O)=O)cc2)cc1` [compound 53], at human FXR, the Emax is 34%.

`CC(C)(C)c1ccc(C(=O)NCc2ccc(SC(F)(F)F)cc2)cc1` [compound 54]: on human FXR, the Emax is 19%.

Take `CC(C)(C)c1ccc(C(=O)NCc2ccc(S(N)(=O)=O)cc2F)cc1` [compound 55]: the Emax at human FXR is 34%.

The aqueous solubility is how much of the substance goes into solution per volume. In “aqueous solubility”, `CC(C)(C)c1ccc(C(=O)NCc2ccc(NC(=O)C(F)(F)F)cc2Cl)cc1` [compound 56] gave an aqueous solubility below 0.1 µg/mL. In addition, the Emax on human FXR was 21%.

With `CC(C)(C)c1ccc(C(=O)NCc2ccc(NS(C)(=O)=O)cc2Cl)c(O)c1` [compound 77, 4-(tert-Butyl-2-hydroxy)-N-(2-chloro-4-(methylsulfonamido)benzyl)benzamide], the IC50 at recombinant human sEH was determined as 380 ± 50 nM. The “FXR activation (result in words)” value at human FXR is recorded as “antagonistic”.

On to `CC(C)(C)c1ccc(C(=O)NCc2ccc(NS(C)(=O)=O)cc2Cl)cc1O` [compound 78, 4-(tert-Butyl-3-hydroxy)-N-(2-chloro-4-(methylsulfonamido)benzyl)benzamide], for which the IC50 at recombinant human sEH is 16 ± 0.6 nM. On human FXR, the Emax is 24% and the concentration for a half-maximal effect (EC50) is 3 ± 0.001 nM.

Regarding `CC(C)(C)c1ccc(C(=O)NCc2ccc(NS(C)(=O)=O)cc2C(F)(F)F)cc1` [compound 80, 4-(tert-Butyl)-N-(2-trifluoromethyl-4-(methylsulfonamido)benzyl)benzamide], the half-inhibitory concentration (IC50) at recombinant human sEH was found to be 2 ± 0.08 nM. At human FXR, the Emax was 19% and the concentration for a half-maximal effect (EC50) amounted to 1200 ± 180 nM.

Consider `CC(C)S(=O)(=O)Nc1ccc(CNC(=O)c2ccc(C(C)(C)C)cc2)c(Cl)c1` [compound 81, 4-(tert-Buty)-N-(2-chloro-4-(isopropylsulfonamide)benzyl)-benzamide], for which, at recombinant human sEH, the IC50 was determined as 11 ± 0.3 nM. Further, at human FXR, the Emax was 11% and the concentration for a half-maximal effect (EC50) was 420 ± 20 nM.

Turning to `CCS(=O)(=O)Nc1ccc(CNC(=O)c2ccc(C(C)(C)C)cc2)c(Cl)c1` [compound 82, 4-(tert-Butyl)-N-(2-chloro-4-(ethylsulfonamido)benzyl)-benzamide], the IC50 at recombinant human sEH came to 6 ± 0.5 nM. In addition, at human FXR, the Emax was 23% and the EC50 is 490 ± 50 nM.

With `CN(C)c1ccc(C(=O)NCc2ccc(NS(C)(=O)=O)cc2Cl)cc1` [compound 83, 4-(Dimethylamino)-N-(2-chloro-4-(methylsulfonamido)benzyl)benzamide], the IC50 on recombinant human sEH came to 45 ± 2 nM. Also, at human FXR, the Emax was 23% and the concentration for a half-maximal effect (EC50) is 1460 ± 23 nM.

With `CS(=O)(=O)Nc1ccc(CNC(=O)c2ccc(C3(C(F)(F)F)CC3)cc2)c(Cl)c1` [compound 84, 4-((1-Trifluoromethyl)cycloprop-1-yl)-N-(2-chloro-4-(methylsulfonamido)benzyl)benzamide], the half-inhibitory concentration (IC50) on recombinant human sEH stood at 4 ± 0.4 nM. Besides, at human FXR, the Emax is 31% and the concentration for a half-maximal effect (EC50) is 540 ± 20 nM.

`CCc1ccc(CCOc2ccc(CC3SC(=O)NC3=O)cc2)nc1` (stereo not shown) [pioglitazone, reference compound]: in data set [2], the “CD36 mRNA expression compared to vehicle set as 100%” value is listed as 353±43% and the “FAM3A mRNA expression compared to vehicle set as 100%” value amounted to 310±66%.
